{"source": "patent US8211883B2", "about": "“Topical delivery of phthalocyanines” (priority 2004, dated 2012)", "key": {"[1]": {"test_system": "Chinese hamster V79-379 lung fibroblasts", "test": "Uptake of phthalocyanines into V79 cells", "settings": "V79 cells, 1.0 μM, 18 hours", "method_in_brief": "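V79-379 cells were incubated with phthalocyanine for 18 h, typically at 1, 2 and/or 4 μM. Cells collected on filters were extracted into ethanol and absorbance read at the peak, usually 668 nm. Values are nmol per 10^6 cells, using ε 2.93×10^5.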"}, "[2]": {"test_system": "Chinese hamster V79-379 lung fibroblasts", "test": "Growth delay of V79 cultures after phthalocyanine and red light", "assay_type": "cell-based", "settings": "V79 cells, 1.0 μM, 18 hours, 12 kJ/m^2 red light", "experimental": "At the time of light exposure, there were approximately 1.5×10^5 cells per 25 cm^2 flask. Following irradiation, the HBSS was replaced by 10 mL of fresh complete growth medium, and the cultures were returned to the 37° C. incubator. At various times before and after irradiation, duplicate cultures were trypsinized and counted. Controls included untreated cells and cells treated with light alone or drug alone. In addition, in each experiment, the drug to be tested was compared to a standard treatment, i.e. 1 μM AlPcCl for 18 hours followed by 12 kJ/m^2 light.\nThe inhibition of V79 culture growth was measured during a three day period following red light irradiation (12 kJ/m^2) of phthalocyanine-pretreated cells. With each of the active compounds, as well as with AlPcCl, there was an initial decrease in cell density, as dead cells became detached from the monolayer. Thereafter, the cell number per flask increased, as living cells grew and divided. The time for the cell density to recover to the level at the time of light exposure was considered the growth delay. […] The ratio of the growth delay for the test photosensitizer and the growth delay for AlPcCl measured in the same experiment is recorded in Table 1. There was less inhibition of culture growth when cells were exposed to compounds III, V, or VI as expected from the poor cellular uptake of these drugs."}, "[3]": {"test_system": "Chinese hamster V79-379 lung fibroblasts", "test": "Clonogenic cell survival of V79 cells after photodynamic treatment", "assay_type": "cell-based", "settings": "for CF10(AIPcCI)/CF10 (Pc) / F10(AIPcCI)/F10 (Pc): 1.0 μM; for CF10(AIPcCI)/CF10 (Pc): CF10 = product of intracellular concentration and fluence reducing survival to 10%; for F10(AIPcCI)/F10 (Pc): F10 = fluence reducing cell survival to 10%", "method_in_brief": "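V79 cells exposed to 0.5 or 1.0 μM phthalocyanine, then irradiated about 18 h later with increasing fluences of broad-band red light (600 nm high-pass filter). Survival scored as colonies of ≥50 cells. F10 taken from survival curves; CF10 from survival against intracellular concentration × fluence; 1 μM AlPcCl run as reference.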"}, "[4]": {"test": "Solubility", "assay_type": "physicochemical"}, "[5]": {"test_system": "L5178Y cells", "test": "Induction of apoptosis (DNA ladder) in L5178Y cells after PDT", "assay_type": "cell-based, Mouse", "settings": "for Fluence, Minimum Demonstrated Condition to Induce Apoptosis / C × F Ld90, Minimum Demonstrated Condition to Induce Apoptosis: 0.5 μM; for Fluence, Minimum Demonstrated Condition to Induce Apoptosis: suspended in DMF-Tween 80; for C × F Ld90, Minimum Demonstrated Condition to Induce Apoptosis: suspended in DMF-Tween 80, product of concentration and fluence; for induction of apoptosis: 1 μM at a fluence of 30 kJ/m^2"}, "[6]": {"test_system": "human skin keratome biopsies", "test": "Penetration of topically applied PcIV and salts into human skin, confocal fluorescence microscopy", "assay_type": "in vitro ADME", "settings": "compared to PcIV", "experimental": "Human skin absorption of PcIV was analyzed by fluorescence confocal microscopy. PcIV fluorescence, upon activation with a HeNe laser at 633 nm, was visualized using a 650 long pass filter. Briefly, 0.4 mm thick human keratomes were removed from the gluteal region of healthy volunteers and divided into 1.5 cm×1.5 cm squares of skin. Upon application of PcIV to the epidermis in a vehicle of ethanol and propylene glycol, visualization of penetration of PcIV was achieved by fluorescence. Pc 4 was then prepared as PcIV-pyruvate and PcIV-HCl and applied in the same vehicle as Pc 4 to the epidermis. Three concentrations, namely, 0.1 mg/mL, 0.05 mg/mL, and 0.01 mg/mL were tested per PcIV formulation. Skin was incubated at 37° C. for 1, 2, and 4 hours, along with vehicle controls. […] Maximum PcIV fluorescence was detectable using laser transmission of 3% for the 0.1 mg/mL and 30% for the 0.01 mg/mL. Both PcIV.pyruvate and PcIV.HCl however could be visualized with a laser transmission of 2-3% for the 0.1 mg/mL and 7-9% for the 0.01 mg/mL concentrations.\nThe ability of PcIV and the newly prepared PcIV salts (HCl and pyruvate) to penetrate into the epidermis of keratome derived biopsies was examined. The time course of penetrance as well as the effect of dose of the PcIV compounds were evaluated. PcIV and the PcIV.HCl and PcIV.pyruvate salts were resuspended in ethanol (100%, 1 part PcIV, 499 parts ethanol) and then diluted to final concentrations in a 30% Propylene Glycol 70% Ethanol mixture.\nKeratome biopsies of normal skin were obtained from normal volunteers after written consent according to UHHS IRB protocol # 05-95-03. To date, seven experiments have been performed. The range of age for volunteers was 20-40 yrs. Individuals represented Fitzpatrick skin types between I-III. Skin biopsies were held in PBS following the keratome procedure until processed for PcIV Application (less than 1 hr). The keratome skin samples (1.5 cm^2) were overlayed onto sterile gauze in 80 mm tissue culture petri dishes epidermal side down. PcIV compounds were then applied to the corners of the sterile gauze and allowed to “wick” through the gauze and contact the epidermis of the skin for the indicated times. Following the incubation, the tissue was removed from the gauze and washed three times in phosphate buffered saline and held, in PBS, until analysis by confocal microscopy. Confocal images were acquired using a 20×N.A. 0.5 water immersion objective on a Zeiss 510 confocal microscope. PcIV fluorescence was elicited using a 633 nm wavelength for excitation, and collected with a 633 nm dichroic mirror and 650 nm long-pass filter."}, "[7]": {"test_system": "human breast cancer MCF-7c3 cells", "test": "Uptake of PcIV salts into MCF-7c3 cells by flow cytometry", "settings": "50, 100 or 200 nM, 60 minutes, mean channel fluorescence normalized to PcIV", "method": "Cells were grown in 5 mL of RPMI-1640 medium supplemented with 10% fetal calf serum in 60-mm diameter Petri dishes in a 37° C. incubator in an atmosphere of 5% CO2, 95% air. Cultures were used when they were in exponential growth. For experiments, various concentrations (50, 100, or 200 nM) of each compound (PcIV, PcIV-HCl, PcIV-pyruvate), were added to the medium above the cells, and the dishes were returned to the incubator for 60 minutes to allow the photosensitizers to enter the cells. To evaluate uptake, the medium was removed, and the cells were detached from the plastic surface with trypsin and collected by centrifugation. The cell pellet was suspended in phenol-red-free Hank's balanced salt solution and analyzed by flow cytometry (λex=335-355 nm; emission collected through a 650-nm long-pass filter). For each cell sample, the data were expressed as the mean channel fluorescence and background was subtracted. Data for each concentration of the PcIV salts were then normalized to those for the same concentration of PcIV in the same experiment. […] Error bars represent the standard deviation of the mean."}, "[8]": {"test": "Photolysis of solutions by white light", "assay_type": "physicochemical"}, "[9]": {"test_system": "RIF-1 (radiation-induced fibrosarcoma) tumors", "test": "PDT of RIF-1 implanted tumors", "assay_type": "in vivo, C3H/HeN mice", "design": "key to Tumor Responses at 24 hours: complete: no evidence of any tumor mass in any animal; only the scar from the photodynamic therapy was evident.; near complete: evidence of any tumor mass in four or five animals; only some tumor mass in one or two animals.; substantial: a significant tumor shrinkage occurred in all animals. In some animals the tumor response was complete, yet in others the response was not complete.; moderate: some tumor shrinkage was evident in some animals. In animals with some tumor shrinkage, scar formation was evident.; slight: some tumor decrease occurred in one or two mice", "settings": "1 mg/kg in corn oil, 675 nm", "experimental": "The relative effectiveness at reducing tumor volume of selected phthalocyanine compounds at a given dosage was compared in vivo. RIF-1, i.e., radiation-induced fibrosarcoma, tumors were implanted into the backs of C3H/HeN mice. One tumor was implanted per mouse. Each of the phthalocyanine compounds listed in Table 7 was sonicated and vortexed in corn oil to produce a suspension. When the tumors reached […] in diameter and 2-3 mm in thickness, each mouse received 1 mg/kg in 0.1 mL of the corn oil, of the phthalocyanine suspension. For comparison, select mice received a conventional photosensitizer; either 5 mg/kg of chloroaluminum phthalocyanine tetrasulfonate, herein also referred to as “AlPcTS” in phosphate buffered saline or 5 mg/kg of Photofrin®-II in 5% dextrose. Twenty-four hours after the photosensitizers were administered, the tumors were irradiated with visible radiation delivered by an argon-pumped dye laser. The mice that received a phthalocyanine photosensitizer received light having a wavelength of 675 nm and the mice that received the Photofrin® II photosensitizer received light having a wavelength of 630 nm. Each tumor received 135 J/cm^2 of radiation. Tumor size was measured every day using calipers. The initial tumor volume was 50±10 mm^3. Tumor volume was calculated according to the hemiellipsoid model by the formula: V=½(4π)/3×(½×(w/2))×h\n• complete—no evidence of any tumor mass in any animal; only the scar from the photodynamic therapy was evident. • near complete—evidence of […] in four or five animals; only some tumor mass in one or two animals. • substantial—a significant tumor shrinkage occurred in all animals. In some animals the tumor response was complete, yet in others the response was not complete. • moderate—some tumor shrinkage was evident in some animals. In animals with some tumor shrinkage, scar formation was evident. • slight—some tumor decrease occurred in one or two mice."}}}
{"compound": "AlPcOSi(CH3)2(CH2)3N(CH3)3^+I^− [Compound II]", "values": [{"measurement": "Uptake, Efficiency Relative to 1 μM (AlPcCl)", "setting": "[1]", "value": 1.8}, {"measurement": "Growth Delay (12 kj/m^2), Efficiency Relative to 1 μM (AlPcCl)", "setting": "[2]", "value": 3.4}, {"measurement": "CF10(AIPcCI)/CF10 (Pc)", "setting": "[3]", "value": 0.72}, {"measurement": "F10(AIPcCI)/F10 (Pc)", "setting": "[3]", "value": 0.99}, {"measurement": "solubility in H2O", "setting": "[4]", "value": "insoluble"}]}
{"compound": "C[Si](C)(CCCN1CCNCC1)O[Si]1(O[Si](C)(C)CCCN2CCNCC2)n2c3c4ccccc4c2N=C2N=C(N=c4c5ccccc5c(n41)=NC1=NC(=N3)c3ccccc31)c1ccccc12", "note": "[Compound XXXII, SiPc[OSi(CH3)2(CH2)3NC4H8NH]2]", "values": [{"measurement": "Fluence, Minimum Demonstrated Condition to Induce Apoptosis", "setting": "[5]", "value": 5, "unit": "kJ/m^2"}, {"measurement": "C × F Ld90, Minimum Demonstrated Condition to Induce Apoptosis", "setting": "[5]", "value": 2.5, "unit": "kJ/m^2"}, {"measurement": "solubility in DMF", "setting": "[4]", "value": "not soluble in DMF"}]}
{"compound": "C[N+](C)(C)CCC[Si](C)(C)O[Si]1(O[Si](C)(C)CCC[N+](C)(C)C)n2c3c4ccccc4c2N=C2N=C(N=c4c5ccccc5c(n41)=NC1=NC(=N3)c3ccccc31)c1ccccc12.[I-].[I-]", "note": "[Compound VI, SiPc[OSi(CH3)2(CH2)3N(CH3)3)^+I^−]2]", "values": [{"measurement": "Uptake, Efficiency Relative to 1 μM (AlPcCl)", "setting": "[1]", "value": 0.1}, {"measurement": "Growth Delay (12 kj/m^2), Efficiency Relative to 1 μM (AlPcCl)", "setting": "[2]", "value": 0.5}, {"measurement": "induction of apoptosis", "setting": "[5]", "value": "did not induce apoptosis"}, {"measurement": "solubility in H2O", "setting": "[4]", "value": "disperses in H2O but doses not dissolve in it"}]}
{"compound": "CN1CCN(CCC[Si](C)(C)O[Si]2(O[Si](C)(C)CCCN3CCN(C)CC3)n3c4c5ccccc5c3N=C3N=C(N=c5c6ccccc6c(n52)=NC2=NC(=N4)c4ccccc42)c2ccccc23)CC1", "note": "[Compound XXX, SiPc[OSi(CH3)2(CH2)3NC4H8NCH3]2]", "values": [{"measurement": "Maximum Effect (% survival at kj/m^2)", "setting": "[3]; concentration not given, at 10 kj/m^2", "value": 30, "unit": "% at 10"}, {"measurement": "Fluence, Minimum Demonstrated Condition to Induce Apoptosis", "setting": "[5]", "value": 15.0, "unit": "kJ/m^2"}, {"measurement": "C × F Ld90, Minimum Demonstrated Condition to Induce Apoptosis", "setting": "[5]", "value": 7.5, "unit": "kJ/m^2"}, {"measurement": "solubility in DMF", "setting": "[4]", "value": "not soluble in DMF"}]}
{"compound": "CC(=O)C(=O)O.CN(C)CCC[Si](C)(C)O[Si]1(O)n2c3c4ccccc4c2N=C2N=C(N=c4c5ccccc5c(n41)=NC1=NC(=N3)c3ccccc31)c1ccccc12", "note": "(centres unmarked) [PcIV-pyruvate, HOSiPcOSi(CH3)2(CH2)3N(CH3)2(CH3C(O)COOH)]", "values": [{"measurement": "effect of salt formulation on penetration through the skin", "setting": "[6]", "value": "does not hinder the penetration"}, {"measurement": "efficiency in entering MCF-7c3 cells compared to PcIV", "setting": "[7]", "value": "at least as efficient, and possibly more efficient"}]}
{"compound": "CN(C)CCC[Si](C)(C)O[Si]1(C)n2c3c4ccccc4c2N=C2N=C(N=c4c5ccccc5c(n41)=NC1=NC(=N3)c3ccccc31)c1ccccc12", "note": "(centres unmarked) [Compound III, CH3SiPcOSi(CH3)2(CH2)3N(CH3)2]", "values": [{"measurement": "Uptake, Efficiency Relative to 1 μM (AlPcCl)", "setting": "[1]", "value": 0.07}, {"measurement": "Growth Delay (12 kj/m^2), Efficiency Relative to 1 μM (AlPcCl)", "setting": "[2]", "value": 0.05}, {"measurement": "photolysis of solutions", "setting": "[8]", "value": "rapidly photolyzed by white light"}]}
{"compound": "C[N+](C)(C)CCC[Si](C)(C)O[Si]1(O)n2c3c4ccccc4c2N=C2N=C(N=c4c5ccccc5c(n41)=NC1=NC(=N3)c3ccccc31)c1ccccc12.[I-]", "note": "(centres unmarked) [Compound V, HOSiPcOSi(CH3)2(CH2)3N(CH3)3^+I^−]", "values": [{"measurement": "Uptake, Efficiency Relative to 1 μM (AlPcCl)", "setting": "[1]", "value": 0.3}, {"measurement": "Growth Delay (12 kj/m^2), Efficiency Relative to 1 μM (AlPcCl)", "setting": "[2]", "value": 0}, {"measurement": "CF10(AIPcCI)/CF10 (Pc)", "setting": "[3]", "value": 3.0}, {"measurement": "F10(AIPcCI)/F10 (Pc)", "setting": "[3]", "value": 0.59}, {"measurement": "induction of apoptosis", "setting": "[5]", "value": "did not induce apoptosis"}, {"measurement": "Tumor Responses at 24 hours", "setting": "[9]; 135 J/cm^2, light 24 h after dosing", "value": "moderate"}, {"measurement": "Doubling Time of Initial Tumor Volume after PDT", "setting": "[9]; 135 J/cm^2, controls 4 days", "value": 6, "unit": "days"}, {"measurement": "solubility in H2O", "setting": "[4]", "value": "insoluble"}]}
